These results are taken from ChEMBL document CHEMBL1128762, “The design of polar -turn dipeptide mimetics” (Bioorg Med Chem Lett, 1995).

Positions of bridges follow the written chain, without caps; N, C: chain ends. Non-standard residues stand in square brackets, D forms with d. Residues, ends and D or L forms follow the SMILES beside them. *: point of attachment. Cbz = O=C(OCc1ccccc1)*; Dap = NC[C@H](N)C(=O)O

One test concerns the target T1, Neuromedin-K receptor (Homo sapiens, UniProt P29371).
T1 sequence (P29371 whole entry): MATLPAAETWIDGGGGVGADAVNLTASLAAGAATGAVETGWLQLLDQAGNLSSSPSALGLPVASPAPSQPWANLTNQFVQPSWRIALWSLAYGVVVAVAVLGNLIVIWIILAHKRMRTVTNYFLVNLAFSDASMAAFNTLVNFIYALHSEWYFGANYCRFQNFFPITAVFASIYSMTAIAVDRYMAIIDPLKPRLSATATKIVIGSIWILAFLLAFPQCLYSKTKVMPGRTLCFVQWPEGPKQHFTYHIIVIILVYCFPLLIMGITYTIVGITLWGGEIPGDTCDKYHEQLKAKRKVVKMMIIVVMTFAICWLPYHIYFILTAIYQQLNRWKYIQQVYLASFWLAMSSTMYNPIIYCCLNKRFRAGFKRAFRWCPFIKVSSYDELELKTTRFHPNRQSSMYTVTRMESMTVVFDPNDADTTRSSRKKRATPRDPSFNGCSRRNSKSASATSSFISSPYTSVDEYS
Briefly: Binding affinity towards Tachykinin receptor 3 using [125I]-[Mephe7] NKB as radioligand.
For the compound `O=C(Cc1ccccc1)N1CCC(Cc2ccccc2)C1` (stereo unspecified), the IC50 (as a rule, the midpoint of a concentration-inhibition curve) is 9.4 µM.
Still for that read-out and setting: for `NC(=O)[C@H](Cc1ccccc1)NC(=O)[C@H](Cc1c[nH]c2ccccc12)NC(=O)OCc1ccccc1` (Cbz-Trp-Phe-NH2) the value was 9.3 µM.

Another test deals with T2, Substance-K receptor (Mesocricetus auratus, UniProt P51144).
T2 sequence (P51144 whole entry): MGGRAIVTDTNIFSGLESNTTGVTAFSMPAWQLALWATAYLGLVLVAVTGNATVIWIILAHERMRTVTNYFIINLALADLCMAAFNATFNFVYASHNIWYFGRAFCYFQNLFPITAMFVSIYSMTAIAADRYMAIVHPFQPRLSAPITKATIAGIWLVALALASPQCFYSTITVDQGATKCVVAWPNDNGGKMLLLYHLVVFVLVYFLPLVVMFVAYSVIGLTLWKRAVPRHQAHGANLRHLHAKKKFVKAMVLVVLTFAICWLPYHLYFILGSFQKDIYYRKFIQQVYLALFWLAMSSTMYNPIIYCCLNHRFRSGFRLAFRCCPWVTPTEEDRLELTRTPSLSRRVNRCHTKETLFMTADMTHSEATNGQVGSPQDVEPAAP
Briefly: Binding affinity towards Tachykinin receptor 2 using [125I]iodohistidyl-NKA (0.1 nM)) as radioligand. On the set-up: species or system Cricetulus griseus.
Regarding `O=C(Cc1c[nH]c2ccccc12)N1CCC(Cc2ccccc2)C1` (stereo unspecified), the IC50 is over 10 µM.
With `NC(=O)[C@H](Cc1ccccc1)NC(=O)[C@H](Cc1c[nH]c2ccccc12)NC(=O)OCc1ccccc1` (Cbz-Trp-Phe-NH2), the IC50 stood at 5.2 µM.
The same measure, in the same setting: for `CSCC[C@@H]1NC(=O)[C@H](CC(C)C)NC(=O)[C@@H]2CNC(=O)C[C@H](NC1=O)C(=O)N[C@@H](Cc1c[nH]c3ccccc13)C(=O)N[C@@H](Cc1ccccc1)C(=O)N2` (cyclo(DWF[Dap]LM); lactam 1-4) the value was over 10 µM.
The compound Ac-LMQWFG-OH registered a half-maximal inhibitory concentration (IC50) of 19.8 µM.
